Experimental data published in patent US7838045B2, “Anti-inflammatory activity of phenethylisothiocyanate (PEITC) and the Barbarea verna seed preparation containing this compound” (priority 2005, dated 2010).

Columns and labels:
Format in all cases: cell-based, mouse
COX2 = test: qPCR gene expression in LPS-stimulated RAW264.7 macrophages, COX2; settings: for COX2 % down-regulation: 8 hour treatment
Protocol: (§1) The mouse monocyte/macrophage cell line RAW 264.7 (obtained from American Type Culture Collection, ATCC, VA USA) was maintained in Dulbecco's Modified Eagle Medium (DMEM) (Invitrogen Inc) supplemented with 100 U/ml penicillin, 100 μg/ml streptomycin, and 10% heat-inactivated fetal calf serum. All incubations were at 37° C. in a 5% CO2 in internal air atmosphere, within the growth chamber.
Cells were seeded at a density of 0.4×10^6 cells per well (viable cell counts performed with a hemocytometer), in 24 well plates 12 hours prior to treatment. The cells were then treated with test compounds at required concentrations (pre-determined doses) for 2 hours before elicitation with LPS at 1 μg/ml for an additional 6 hours. For every experiment one positive control (cells treated only with LPS) and one negative control (cells without any treatment) were included. For treatments and the controls, two replicates were made in each case. At the end, cells were harvested in Trizol reagent (Invitrogen Inc) for subsequent cellular RNA extraction. […] Cell viability was measured by MTT assay (Mosmann (1983) J. Immunol. Methods 65:55-63).
(§2) Total RNA was extracted from RAW macrophages using Trizol reagent (Invitrogen Inc.) following manufacturer instructions. RNA was quantified spectro-photometrically by absorption measurements at 260 nm and 280 nm using NanoDrop™ system (NanoDrop Technologies Inc. DE, USA). RNA was assessed qualitatively by gel-electrophoresis methods. RNA was then treated with DnaseI (Invitrogen Inc.) also following manufacturer guidelines, to remove any traces of DNA contamination. The cDNAs were synthesized using 3 μg of RNA for each sample using Stratascript™ Reverse Transcriptase, an RNA dependent DNA polymerase (Stratagene, La Jolla, Calif.), following manufacturer protocol. Utmost care was taken to minimize any quantification inaccuracy and pipetting error.
(§3) The synthesized cDNAs were diluted 4-fold. 2 μl of each of these diluted samples were used for PCR reactions of 25 μl final volume. The other components of the PCR reactions were 0.5 μl of 6 μM gene specific primers (oligos synthesized by IDT Inc. USA), 12.5 μl of Brilliant SYBR green PCR master mix (2×) (Stratagene, La Jolla, Calif.) containing green jump-start Taq ready mix. ROX (Stratagene, La Jolla, Calif.) was used as an internal dye. To avoid interference due to genomic DNA contamination, only intron-overlapping primers were selected using the software Primer Express™ (Applied Biosystem, Foster City, Calif.) as follows:
(§4) Forward and reverse pairs of the primers are indicated above as “F” and “R” respectively. PCR amplifications were performed on MX3000p system (Stratagene, La Jolla, Calif.) using 1 cycle at 50° C. for 2 min, 1 cycle of 95° C. for 10 minutes, followed by 40 cycles of 15 seconds at 95° C. and 1 min at 60° C. The dissociation curve was completed with one cycle of 1 minute at 95° C., 30 seconds of 55° C. and 30 seconds of 95° C. NRT (non-RT control) and NTC (no template control) were included in the PCR program as quality control steps.
(§5) RNA expressions for COX2, iNOS and IL1β, normalized with respect to the expression of housekeeping β-actin gene, were analyzed using the ΔΔCt method (software from Stratagene inc, USA) as described by Pfaffl (Pfaffl, 2001, Nucleic Acids Res 29(9):2002-2007). The ΔΔCt values obtained from these analyses were converted [(1−ΔΔCt)×100] to obtain percentage of inhibition (% inhibition or % downregulation) which reflected the anti-inflammatory properties of the test compounds (Table 2, 4). A value of 100% indicates complete inhibition of LPS-stimulated genetic up-regulation. 0% implies absence of any anti-inflammatory activity of the test compound.

IL1β = test: qPCR gene expression in LPS-stimulated RAW264.7 macrophages, IL1β; settings: for IL1β % down-regulation: 8 hour treatment
Protocol: as §1
(§6) Cells were seeded at a density of 0.4×10^6 cells per well (viable cell counts performed with a hemocytometer), in 24 well plates 12 hours prior to treatment. The cells were then treated with test compounds at required concentrations (pre-determined doses) for 2 hours before elicitation with LPS at 1 μg/ml for an additional 6 hours. For every experiment one positive control (cells treated only with LPS) and one negative control (cells without any treatment) were included. For treatments and the controls, two replicates were made in each case. At the end, cells were harvested in Trizol reagent (Invitrogen Inc) for subsequent cellular RNA extraction. The stock of BSP used for the assay was prepared by partially dissolving 50 mg/ml seed preparation in 95% ethyl alcohol for 15 minutes by sonication, where it released PEITC in the clear supernatant that was used for the cell treatment. Cell viability was measured by MTT assay (Mosmann (1983) J. Immunol. Methods 65:55-63).
as §2, §3, §4
as §5, with “compound. […]” for “compound.”

iNOS = test: qPCR gene expression in LPS-stimulated RAW264.7 macrophages, iNOS; settings: for iNOS % down-regulation: 8 hour treatment
Protocol: as §1, §6, §2, §3, §4
as §5, with “compound. […]” for “compound.”

[1] = Mus musculus, RAW264.7, pure compound

SMILES | COX2 % down-regulation (COX2; 5 μM) | IL1β % down-regulation (IL1β; 5 μM) [%] | iNOS % down-regulation (iNOS; 5 μM) [%] | COX2 % down-regulation (COX2; 10 μM) | IL1β % down-regulation (IL1β; 10 μM) [%] | iNOS % down-regulation (iNOS; 10 μM) [%] | COX2 % down-regulation (COX2; 1 μM) [%] | COX2 % down-regulation (COX2; 20 μM) [%] | IL1β % down-regulation (IL1β; 1 μM) [%] | IL1β % down-regulation (IL1β; 20 μM) [%] | iNOS % down-regulation (iNOS; 1 μM) [%] | iNOS % down-regulation (iNOS; 20 μM) [%] | further results
C=CCN=C=S [Allyl] | Up-regulation | 86 | 76 | – | – | – | – | – | – | – | – | – | IL1β % down-regulation (IL1β; 5 μM, listed as allyl): equally active as PEITC; iNOS % down-regulation (iNOS; 5 μM, listed as allyl): equally active as PEITC
CC(C)N=C=S [Isopropyl] | Up-regulation | 40 | 9 | Up-regulation | 59 | 7 | – | – | – | – | – | – | –
S=C=NCCc1ccccc1 [PEITC, phenethylisothiocyanate] | 19.0 ± 27.1% | 86.0 ± 9.8 | 69.8 ± 21.1 | 28.3 ± 15.0% | 92.0 ± 10.4 | 81.7 ± 5.5 | −73.5 ± 20.5 | 99.5 ± 0.7 | 36.5 ± 9.2 | 100.0 ± 0.0 | 2.0 ± 7.1 | 99.5 ± 0.7 | COX2 % down-regulation (COX2; 40 μM): 100.0 ± 0.0%; COX2 % down-regulation (COX2; 80 μM): 100.0 ± 0.0%; IC50 (COX2; [1]): 17 µM; IL1β % down-regulation (IL1β; 40 μM): 100.0 ± 0.0%; IL1β % down-regulation (IL1β; 80 μM): 100.0 ± 0.0%; IC50 (IL1β; Mus musculus, RAW264.7, pure compound, read-out: IC50 in IL1 β-assay): 2 µM; iNOS % down-regulation (iNOS; 40 μM): 99.5 ± 0.7%; iNOS % down-regulation (iNOS; 80 μM): 99.5 ± 0.7%; IC50 (iNOS; [1]): 4 µM
S=C=Nc1ccccc1 [Phenyl] | Up-regulation | 47 | 31 | 3% | 59 | 35 | – | – | – | – | – | – | –
CC(C)(C)N=C=S [Tert-butyl] | Up-regulation | 44 | 3 | Up-regulation | 61 | 0 | – | – | – | – | – | – | –
CS(=O)(=O)c1ccc(C2=C(c3ccccc3)C(=O)OC2)cc1 [rofecoxib] | 8% | 10 | 37 | 22% | 12 | 68 | −52 | 25 | 18 | 15 | 35 | 45 | –
